Measurements published in patent US9566351B2, “Molecular containers and methods of making and using same” (University of Maryland, College Park, priority 2010, dated 2017).
Where two headings read alike, the source gives them in different places.

Experiments:
[1] = Swiss Webster, mouse, in vivo
[2] = Swiss Webster, mouse, in vivo, iv, 3.2 mg/kg
[3] = test system: SK-OV-3 cells; details: ABZ formulated in ethanol; cited from earlier work
[4] = test system: glioblastoma multiforme; details: daily oral doses (50 and 150 mg/kg) of ABZ tablets mixed with 50% sesame oil; cited from earlier work
[5] = in vivo; details: Swiss Webster, mouse, iv, plasma concentration
[6] = test system: OVCAR-3 (human ovarian adenocarcinoma); details: 150 mg/kg of ABZ 3 times a week for 4 weeks through IP; cited from earlier work
[7] = mice; repeated oral dosing of 30-40 mg/kg/day for 4-90 days; cited from earlier work
[8] = in vivo; details: Swiss Webster, mouse, ip, plasma concentration
[9] = Phase-solubility of pharmaceutical agents with Motor2 (1H NMR); details: drug solubilized with Motor2; 20 mM sodium phosphate buffer (pH=7.4); phase diagram
[10] = test system: SKHEP-1 (human liver adenocarcinoma) xenografts; details: ABZ in sesame oil; xenografts on the flank of mice; cited from earlier work
[11] = drug with Motor1; 20 mM sodium phosphate buffer (pH=7.4); phase diagram

In the case of `CCCSc1ccc2nc(NC(=O)OC)[nH]c2c1` [Albendazole], the “Absolute Bioavailability (%)” value [1] is reported as 78%, the “tmax” value ([1]; ip, 3.2 mg/kg) is reported as 4.98 min and the “tmax” value [2] is reported as 4.98 min. The IC50 [3] was 3.88 µM, the mouse survival [4] was “moderate improvements in mouse survival” and the concentration at 5 min [5] was 1910 ng/mL. For the same compound, the concentration at 15 min [5] was 606 ng/mL, the “effect on malignant ascites” value [6] was “suppression of malignant ascites” and the signs of toxicity [7] was “no significant signs of toxicity”. The concentration at 15 min [8] was 380 ng/mL, the concentration at 30 min [8] was 292 ng/mL and the concentration at 2 h [8] was 122 ng/mL. The Solubility enhancement [9] was 149 fold, the “daily oral dose required to see an antitumor effect” value [10] was 300 mg/kg and the Solubility enhancement [11] was 226 fold.
